# Source: patent US20230382858A1 (Beckley Psytech Limited, priority 2020, published 2023)
# Experiments:
# dogs = assay: Maximum tolerated dose followed by 7-day repeat-dose toxicology in dogs (Study 62958); format: in vivo; settings: dog
# Procedure: In support of these objectives, the study consisted of 2 individual phases.
# The test item was administered once by intranasal instillation to one male and female dog for up to 5 dose levels until the highest tolerable dose (MTD) was determined as described in Table 5.
# During Phase 2, assessments of mortality, clinical signs, body weights and food consumption were performed. […] Following the last dosing, all animals were euthanized and subjected to a necropsy examination on Day 8. The necropsy consisted of an external examination; including reference to all clinically-recorded lesions, as well as a detailed internal examination. Study plan specific tissues/organs were collected and preserved following necropsy but were not further examined microscopically.
# [1] = Toxicokinetics in Study 62958 (plasma 5MeODMT, LC/MS/MS); format: in vivo; settings: dog, daily intranasal instillation, 7-day treatment period
# Sprague Dawley rats = assay: 14-day repeat-dose intranasal toxicity study with 14-day recovery in rats (Study 700041); format: in vivo, rat; settings: for clinical signs: male and female; for microscopic changes in nasal cavities: male and/or female
# Procedure: (§1) The animals were monitored for mortality, clinical signs, respiratory measurements, body weights, food consumption, and body temperature. Ophthalmoscopic examinations and respiratory function tests were performed on all animals at scheduled timepoints. Clinical pathology assessments (hematology, coagulation, clinical chemistry, and urinalysis) were evaluated at termination. […] Following dosing, the Main animals were euthanized and subjected to a complete necropsy examination on Day 15. […] TK animals were euthanized after the last blood collection and discarded without further examination. At terminal euthanasia, selected tissues/organs were weighed, and microscopic evaluations of a standard set of tissues including the nasal turbinates (4 sections) and brain (7 sections) were performed for all Main and Recovery study animals.
# (§2) Following dosing, animals in the Main group were euthanized and subjected to a necropsy examination on Day 15.
# Toxicity was based on the following parameters monitored: mortality/morbidity, clinical observations, body weights/gains, food consumption, ophthalmoscopy, clinical pathology (hematology, coagulation, chemistry, and urinalysis), necropsy observations, selected organ weights, and microscopic examination of a complete set of standard tissues including 4 cross levels of the nasal cavity and 7 sections of the brain.
# [2] = Toxicokinetics in Study 700041; format: in vivo; settings: rat, intranasal 20 mg/kg/day, Day 14, Male
# Procedure: as §1, §2
# Beagle dogs = assay: 14-day repeat-dose intranasal toxicity study with 14-day recovery in dogs (Study 62959); format: in vivo; settings: dog; for animals with increased triglyceride level: vs control
# Procedure: (§3) Assessments of mortality, clinical signs, olfactory reflex, body weights, food consumption, ophthalmology, and electrocardiograms were performed. In addition, clinical pathology assessments (hematology, coagulation, clinical chemistry and urinalysis) were evaluated once pretreatment and at termination. Blood samples were collected from the jugular vein of all animals on Days 1 and 14, at up to 8 time points relative to treatment, for analysis of test item concentration in plasma and the subsequent calculation of toxicokinetic parameters. Following dosing, the Main animals were euthanized and subjected to a complete necropsy examination on Day 15. […] All Main and Recovery study animals underwent complete necropsy examinations, selected tissues/organs were retained, and microscopic evaluations of a standard set of tissues were performed.
# [3] = Toxicokinetics in Study 62959; format: in vivo; settings: dog
# Procedure: as §3
# For toxicokinetics, a series of 8 blood samples were collected from the jugular vein from all treated animals on each of Days 1 and 14 of the treatment period at 2, 5, 10, 15, 30, and 60 minutes as well as 3 and 8 hours after treatment.
# Dog = assay: Summary of clinical observations in applicant-sponsored dog toxicity studies; format: in vivo; settings: Dog 1.0 mg/kg (33 mg HED), preliminary data, ongoing study
# From the text: Based on preliminary data from another ongoing study in dogs, it has been observed that the site of blood sampling in dogs may impact the measured plasma exposure. Samples from the jugular vein may result in higher apparent exposure levels than samples from the cephalic vein, which might be due to the local transmucosal route of administration (also reported in the scientific literature (Illum, 2003; Sohlberg, 2013)). Therefore, dose escalation criteria for the Phase 1 Single Ascending Dose study are based on assessment of clinical criteria, safety factors and exposure. A maximum dose of 14 mg has been designated.
# male Sprague-Dawley rats = assay: Functional Observational Battery (FOB), effects on CNS function (ITR study 15951); format: in vivo; settings: rat
# Procedure: The test and control/vehicle items were administered by single dose intranasal administration to both nostrils, as shown in Table 1.
# Parameters monitored included mortality and clinical signs. General behavioral changes were assessed using FOB at 6 timepoints: before dosing, and at 15 minutes, 1, 2, 4, and 24 hours postdosing. On each occasion, the FOB was performed at 4 stages: when the animals were in their home cage, while handling the animals, when the animals were freely moving in an open-field, and when they received diverse stimuli for reactivity evaluation. The body temperature and neuromuscular strength were also measured on each of the occasions detailed above.
# [4] = dose escalation phase, single intranasal 2-5 mg/kg
# [5] = phase 2, MTD once daily 5 days then twice daily Days 6 and 7
# [6] = rat, dose levels ≤75 mg/kg/day for 14 days
# [7] = intranasal 0.8 mg/kg/day, Day 1, Female
# [8] = intranasal 0.8 mg/kg/day, Day 1, Male
# [9] = intranasal 0.8 mg/kg/day, Day 14, Female
# [10] = single intranasal 1, 5, and 10 mg/kg, all dose levels
smiles,measurement,setting,value
"COc1ccc2[nH]cc(CCN(C)C)c2c1 [BPL-5MEO, 5-methoxy-N,N-dimethyltryptamine]",food intake,"dogs; dose escalation phase, after Dose 1 and Dose 2",Slight decreases in food intake
same,clinical signs,dogs; [4],"gnawing cage wire, dilated pupils, changes in respiration, incoordination, decreased activity, vocalization, salivation, erect penis (for males) and shaking"
same,mortality and bodyweights,dogs; [4],no BPL-5MEO-related effects on mortality or bodyweights
same,duration of convulsion shortly after dosing,"dogs; male animal, last escalating dose 3.5 mg/kg/day",8 min
same,clinical signs,dogs; [5],"muscle stiffness, gnawing cage wire, dilated pupils, changes in respiration, decreased activity, incoordination, vocalization, salivation, erect penis (for the male) and shaking"
same,mortality and bodyweights,dogs; [5],no test item-related effects on mortality or bodyweights
same,accumulation,[1],did not accumulate
same,adverse effect on reproductive tissues,Sprague Dawley rats; 14-day pivotal GLP intranasal toxicity studies in rats and dogs,no evidence of an adverse effect on reproductive tissues
same,Thymus Mean Absolute Weight,"Sprague Dawley rats; male rats, Group 2 (5 mg/kg/day), compared to the control value",−4 percentage
same,respiratory rate,"Sprague Dawley rats; rat, 20 minutes postdose, vs pretreatment or control",decreases in respiratory rates
same,body temperature,"Sprague Dawley rats; rat, Day 14, 15 and 30 minutes postdose, all treated male animals",slight body temperature increases
same,clinical signs,"Sprague Dawley rats; rat, Group 2 (Low Dose) 5 mg/kg/day","incoordination, shaking, salivation, decreased activity, lying on cage floor and sensitive to touch"
same,clinical signs,"Sprague Dawley rats; rat, Group 3 (Mid Dose) 20 mg/kg/day","incoordination, shaking (or tremor), increased or shallow respiration, mydriasis, salivation, decreased activity, partially closed eyes, lying on cage floor and sensitive to touch"
same,clinical signs,"Sprague Dawley rats; rat, Group 4 (High Dose) 75 mg/kg/day","incoordination, shaking (or tremor), increased or shallow respiration, mydriasis, salivation, decreased activity, partially closed eyes, lying on cage floor and sensitive to touch"
same,macroscopic findings,"Sprague Dawley rats; rat, Main and Recovery groups",no macroscopic findings
same,"microscopic findings in respiratory, transitional and/or olfactory epithelium of nasal cavities 1-4","Sprague Dawley rats; rat, Main group",minimal to mild changes
same,microscopic changes in nasal cavities,"Sprague Dawley rats; rat, Main group, 20 mg/kg/day (Group 3)",Minimal degeneration of the respiratory epithelium of the nasal cavities 1 and 2
same,microscopic changes in nasal cavities,"Sprague Dawley rats; rat, Main group, 5 and/or 20 mg/kg/day (Group 2 and 3)",Minimal degeneration of the olfactory epithelium of the nasal cavities 2 and 3
same,reversibility of nasal microscopic changes,"Sprague Dawley rats; rat, Recovery group, 14-day recovery period",incomplete but progressive ongoing reversal of epithelial degeneration
same,body weight gain,"Sprague Dawley rats; rat, both sexes, Days 1 to 14","Slight, generally dose-dependent body weight gain suppression"
same,activated partial thromboplastin times (APTT),"Sprague Dawley rats; rat, both sexes, mid (20 mg/kg/day) and high (75 mg/kg/day) dose groups, vs control",increased
same,clinical chemistry and urinalysis,Sprague Dawley rats; [6],no changes in clinical chemistry and urinalysis parameters
same,food consumption,Sprague Dawley rats; [6],no changes in food consumption
same,ocular effect,Sprague Dawley rats; [6],no adverse ocular effect
same,mortality,"Sprague Dawley rats; rat, intranasal 5, 20, 75 mg/kg/day, 14 days",No mortality
same,tolerability,"Sprague Dawley rats; rat, intranasal, dose levels ≤75 mg/kg/day for 14 consecutive days",tolerated
same,"platelet, neutrophil, monocyte and basophil counts","Sprague Dawley rats; rat, mid and high dose groups, both sexes, vs control",slightly increased
same,t1/2,[2],8.58 min
same,body temperature,"Beagle dogs; Day 14, high dose group, both sexes, 15 and 30 minutes postdose",Transient body temperature increases
same,"Triglyceride, Mean ± SD Day 14","Beagle dogs; Group 2, 0.4 mg/kg/day, Females",0.46 ± 0.61 mmol/L
same,"Triglyceride, Mean ± SD Day 14","Beagle dogs; Group 2, 0.4 mg/kg/day, Males",0.40 ± 0.11 mmol/L
same,"Triglyceride, Mean ± SD Day 14","Beagle dogs; Group 3, 0.8 mg/kg/day, Females",0.47 ± 0.22 mmol/L
same,"Triglyceride, Mean ± SD Day 14","Beagle dogs; Group 3, 0.8 mg/kg/day, Males",0.44 ± 0.07 mmol/L
same,animals with increased triglyceride level,Beagle dogs; Group 3 female,1/3
same,animals with increased triglyceride level,Beagle dogs; Group 4 females,4/5
same,animals with increased triglyceride level,Beagle dogs; Group 4 male,1/5
same,additional clinical observations,Beagle dogs; Mid and High dose groups,eye discharge and shaking
same,time to resolution of clinical signs,Beagle dogs; all treated groups,≤ 90 min
same,transient clinical observation,Beagle dogs; all treated groups,"incoordination, vocalization, mydriasis, decreased or increased activity, increased respiration, gnawing cage wire, excessive licking of nose or lips and circling"
same,additional clinical observation,Beagle dogs; high dose male animals,Erect penis
same,AUC(0-inf),"[3]; Beagle, plasma, inhaled or intranasal, 1.5 mg/kg/day, combined for both sexes, read-out: AUCINF_obs corresponding to NOAEL",220 ng·h/mL
same,Cmax,"[3]; intranasal 0.4 mg/kg/day, Day 1, Male",343 ng/mL
same,t1/2,"[3]; intranasal 0.4 mg/kg/day, Day 14, Female",42.4 min
same,Tmax,"[3]; intranasal 0.4 mg/kg/day, Day 14, Male",6.66 min
same,AUCINF—obs,[3]; [7],265 ng·h/mL
same,t1/2,[3]; [7],43.8 min
same,AUCINF—obs,[3]; [8],160 ng·h/mL
same,Tmax,[3]; [8],6.66 min
same,AUC0-Tlast,[3]; [9],248 ng·h/mL
same,Cmax,[3]; [9],244 ng/mL
same,Tmax,"[3]; intranasal 0.8 mg/kg/day, Day 14, Male",6.66 min
same,Tmax,"[3]; intranasal 2.5 & […], Day 1, Female",6.66 min
same,t1/2,"[3]; intranasal 2.5 & […], Day 14, Male",49 min
same,Clinical observation,Dog,Slight tremor
same,clinical sign in one animal,male Sprague-Dawley rats; single intranasal 10 mg/kg,twitching
same,FOB autonomic domain,male Sprague-Dawley rats; [10],"salivation, piloerection, increased respiration, dilated pupils and changes in body temperature"
same,FOB neurological (sensorimotor)/neuromuscular domain,male Sprague-Dawley rats; [10],transient changes in gait (difficulty in movement)
same,FOB behavioral domain,"male Sprague-Dawley rats; single intranasal 1.5, 3, 10 mg/kg, 15 minutes postdose","transient decreased activity, lying on the cage floor, and decreased rearing"
same,clinical signs in some animals,male Sprague-Dawley rats; single intranasal 3 and 10 mg/kg,"Tremors, salivation, and gasping"
same,clinical signs immediately following dosing,"male Sprague-Dawley rats; single intranasal, all dose groups","decreased activity, lying on the cage floor, shallow/increased respiration and dilated pupils"
